In PMC9977398, “Next-generation membrane-active glycopeptide antibiotics that also inhibit bacterial cell division” (Chemical Science, 2023):
≈ marks a conversion by molar mass, not a printed value. Where two headings read alike, the source gives them in different places.

Tests used:
VRSA = test: Time-kill kinetics against VRSA; format: cell-based, S. aureus
B. subtilis = test: BacLight assay (pore formation assay); format: cell-based; conditions: treatment at PEC
Excerpt: To examine if the compounds form pores on the membrane, a mixture of the fluorescent dyes SYTO 9 and PI was used. While SYTO 9 penetrates both intact and permeabilized cells staining them green, PI is unable to cross the intact membrane and stains only permeabilized or dead cells red. Membrane-disrupting antibiotics such as nisin are known to form pores in the membrane is stained by both SYTO 9 and PI (Fig. 4D). […] Around 20% of the cells visualized post-treatment with both compounds were stained by PI and therefore permeabilized. […]
and the untreated control were carefully removed from the well, washed with 0.9 % saline, and placed on glass slides. The biofilms were then stained with 10 μL of SYTO9 (60μM) and imaged using a Zeiss 510 Meta confocal laser-scanning microscope. The orthogonal projections of the images were processed with LSM 5 Image examiner. […]
Overnight cultures of B. subtilis 168 were grown in 50 mL flasks in 5 mL BMM media. […] The MIC was determined as the lowest concentration at which no visible bacterial OD […]
Overnight cultures of B. subtilis 168 were grown in 50 mL flasks with 10 mL of media. […] The O.D. of the solutions are recorded every 30 minutes. […]
resuspended in prewarmed BMM media. […] The fluorescence in the GFP and Texas red channels was then observed under the microscope. […]

[1] = tested on: VRE 51559 (vancomycin-resistant E. faecium, VanA phenotype, ATCC 51559); test: MIC determination, micro-dilution broth; format: cell-based
[2] = tested on: VRSA 4 (vancomycin-resistant S. aureus); test: MIC determination, micro-dilution broth; format: cell-based; conditions: Staphylococcus aureus, read-out: Minimum inhibitory concentration, VRSA 4
[3] = tested on: VRSA 1 (vancomycin-resistant S. aureus); test: MIC determination, micro-dilution broth; format: cell-based; conditions: Staphylococcus aureus, read-out: Minimum inhibitory concentration, VRSA 1
[4] = tested on: VRE 51575 (vancomycin-resistant E. faecalis, VanB phenotype, ATCC 51575); test: MIC determination, micro-dilution broth; format: cell-based
[5] = tested on: VRSA 12 (vancomycin-resistant S. aureus); test: MIC determination, micro-dilution broth; format: cell-based; conditions: Staphylococcus aureus, read-out: Minimum inhibitory concentration, VRSA 12

SMILES	increase in bacterial titer between 6 h and 24 h (VRSA; VRSA, 2×MIC, after initial reduction)	time to complete eradication (VRSA; VRSA, 6×MIC)	reduction of bacterial titer (VRSA; VRSA, at MIC, 24 h)	pore formation (co-staining SYTO 9 and PI) (B. subtilis)	MIC ([1]; Enterococcus, read-out: Minimum inhibitory concentration, VRE 51559)	MIC [2]	MIC [3]	MIC ([4]; Enterococcus, read-out: Minimum inhibitory concentration, VRE 51575)	MIC [5]	effect on growth of VRSA (VRSA; 20 μM (sub-MIC))	MIC ([1]; Enterococcus; read-out: Minimum inhibitory concentration, VRE 51559)	MIC ([4]; Enterococcus; read-out: Minimum inhibitory concentration, VRE 51575)
CCCCCCCCCCNC(=O)C[N+](C)(C)CCCNC(=O)C1NC(=O)C2NC(=O)C(NC(=O)C3NC(=O)C(CC(N)=O)NC(=O)C(NC(=O)C(CC(C)C)NC)C(O)c4ccc(c(Cl)c4)Oc4cc3cc(c4OC3OC(CO)C(O)C(O)C3OC3CC(C)(N)C(O)C(C)O3)Oc3ccc(cc3Cl)C2O)c2ccc(O)c(c2)-c2c(O)cc(O)cc21 (stereo not shown) [VanQAmC10 (8)]	1 log CFU mL^−1	24 h	1.9 log CFU mL^−1	did not co-stain cells with both the dyes								
CN[C@H](CC(C)C)C(=O)N[C@H]1C(=O)N[C@@H](CC(N)=O)C(=O)N[C@H]2C(=O)N[C@H]3C(=O)N[C@H](C(=O)N[C@H](C(=O)O)c4cc(O)cc(O)c4-c4cc3ccc4O)[C@H](O)c3ccc(c(Cl)c3)Oc3cc2cc(c3O[C@@H]2O[C@H](CO)[C@@H](O)[C@H](O)[C@H]2O[C@H]2C[C@](C)(N)[C@H](O)[C@H](C)O2)Oc2ccc(cc2Cl)[C@H]1O [Vancomycin, reference compound]					250 µM (≈ 362 µg/mL)	345 µM (≈ 500 µg/mL)	345 µM (≈ 500 µg/mL)	750 µM (≈ 1090 µg/mL)	345 µM (≈ 500 µg/mL)	initial growth inhibitory effect, followed by resumption of bacterial growth		
CNC(CC(C)C)C(=O)NC1C(=O)NC(CC(N)=O)C(=O)NC2C(=O)NC3C(=O)NC(C(=O)NC(C(=O)NCCC[N+](C)(C)Cc4ccc(-c5ccccc5)cc4)c4cc(O)cc(O)c4-c4cc3ccc4O)C(O)c3ccc(c(Cl)c3)Oc3cc2cc(c3OC2OC(CO)C(O)C(O)C2OC2CC(C)(N)C(O)C(C)O2)Oc2ccc(cc2Cl)C1O (stereo not shown) [VanQbiph (4)]				did not co-stain cells with both the dyes		3.9 µM	7.8 µM		15.7 µM		6.1 µM	12.3 µM
